Experimental data as given in publication PMC9551036, “A selective and orally bioavailable VHL-recruiting PROTAC achieves SMARCA2 degradation in vivo” (Nature Communications, 2022).
“And” between values parts separate entries of the source, which are not always exact repeats. Equal values may be shown once. Read-outs that look alike come from different tables or passages of the source.

Assays:
[1] = molecular target: T1, VCB complex (Homo sapiens, UniProt P40337); test: SPR binary binding to immobilised VCB complex
T1 construct: His6 (TEV site) (N, cleaved yes); made in house
T1 sequence (P40337 54-213): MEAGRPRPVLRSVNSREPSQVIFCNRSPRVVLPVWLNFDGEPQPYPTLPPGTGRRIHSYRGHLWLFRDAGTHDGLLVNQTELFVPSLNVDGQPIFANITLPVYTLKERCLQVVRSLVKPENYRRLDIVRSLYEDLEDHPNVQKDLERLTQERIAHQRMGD
T1 sequence (Q15369 17-112 partner limits assumed): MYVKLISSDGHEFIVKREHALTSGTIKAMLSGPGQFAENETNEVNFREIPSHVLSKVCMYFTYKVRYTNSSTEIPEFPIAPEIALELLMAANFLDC
T1 sequence (Q15370 1-104 partner limits assumed): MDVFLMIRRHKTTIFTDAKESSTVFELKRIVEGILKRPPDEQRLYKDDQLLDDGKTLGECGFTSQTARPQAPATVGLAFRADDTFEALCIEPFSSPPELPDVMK
Protocol: (§1) SMARCA4^BD was provided by the Structural Genomics Consortium (SGC), Toronto[32] and SMARCA2^BD and PRM1^BD5 were synthesised by GeneArt then subcloned into pDEST15 vectors (Invitrogen). The VCB complex was expressed and purified as described previously, with the modification that 0.3 mM IPTG was used for induction of expression. […] Both were stored in 20 mM 4-(2-hydroxyethyl)−1-piperazineethanesulfonic acid (HEPES), 150 mM sodium chloride and 1 mM tris(2-carboxyethyl)phosphine (TCEP) pH 7.5. SMARCA2^BD, SMARCA4^BD and PBRM1^BD5 were expressed in Escherichia coli BL21(DE3) as N-terminal GST fusion proteins with a TEV protease cleavage site. Expression and purification of these proteins has been described previously[32],[33]. Starter cultures were grown overnight at 37 °C in 10 mL of Luria-Bertani (LB) medium with ampicillin (100 μg/mL). The starter cultures were diluted (1:100) in Terrific Broth (TB) medium with ampicillin (100 μg/mL) and grown in a shaking incubator at 37 °C to an optical density (OD600) ~1 before the temperature was lowered for induction (to 23 °C for SMARCA2^BD or 18 °C for SMARCA4^BD and PRRM1^BD5). […] Cells were harvested by centrifugation and stored at −80 °C prior to purification. […] The Lysis buffers were as follows: for SMARCA2^BD: 50 mM HEPES, 500 mM sodium chloride, 5% glycerol, 5 mM dithiothreitol (DTT); for SMARCA4^BD: 25 mM HEPES, 0.3 M sodium chloride, 5% glycerol, 10 mM DTT, pH 7.5; for PBRM1^BD5: 25 mM HEPES, 300 mM sodium chloride, 5% glycerol, 10 mM DTT, pH 7.8; in each case supplemented with complete protease inhibitors (Roche). Affinity purification was performed using Glutathione Sepharose 4B (GE Healthcare) in batch mode or on-column. […] For SMARCA2^BD, prior to TEV protease cleavage the eluted GST-tagged BD was first dialysed into desalting buffer (20 mM HEPES, 250 mM sodium chloride, pH 7.0 + 0.5% glycerol). Where TEV cleavage was performed in solution, a second affinity (GST-trap) column purification step was carried out to remove the GST-tag and uncleaved GST-tagged protein. Proteins were further purified by SEC (HiLoad Superdex-75, 16/600) (GE Healthcare) and stored in Storage buffer (for SMARCA2^BD: 20 mM HEPES, 150 mM sodium chloride, pH 7.5; for SMARCA4^BD: 10 mM HEPES, 0.5 M NaCl, 5% glycerol, pH 7.5; for PBRM1^BD5: 20 mM HEPES, 300 mM NaCl, 5 mM DTT, pH 7.8). For AlphaScreen assays, eluted GST-tagged BDs were purified directly by SEC in the respective storage buffers without TEV cleavage. All chromatography purification steps were performed either at room temperature or 4 °C using an ÄKTA FPLC purification system (GE Healthcare) or a plastic Econo-Pac column (Bio-Rad).
(§2) SPR data were acquired on Biacore 8K or T200 instruments (Cytiva). Target proteins were immobilised at 25 °C on CM5 chips by amine coupling (EDC/NHS, Cytiva) in HBS-P+ running buffer (pH 7.4), containing 2 mM TCEP. […] The reference surface was subsequently deactivated using 1 M ethanolamine. […] Biotinylated VCB was prepared as previously described[27]: in brief, the complex was mixed 1:1 with EZ-Link NHS–PEG4–biotin (Thermo Scientific) and incubated at room temperature for 1 h. Unreacted NHS-biotin was removed using a PD-10 desalting column (Cytiva) into 20 mM HEPES, pH 7.5, 150 mM sodium chloride and 1 mM DTT. The reference surface was generated by deactivating the EDC/NHS-treated surface with 1 M ethanolamine. All interaction experiments were done at 6 °C in running buffer (20 mM TRIS, pH 8.3, 150 mM potassium chloride, 2 mM magnesium chloride, 2 mM TCEP, 0.005% TWEEN 20, 1% dimethyl sulfoxide). For ternary complex measurements, a sensor chip surface with VCB immobilised was used (preparation as described above). Experiments were run in dual-inject mode with 10 µM SMARCA present during the injection and dissociation phase. Sensorgrams from reference surfaces and blank injections were subtracted from the raw data prior to data analysis using Biacore Insight software.

[2] = molecular target: VCB: PROTAC: SMARCA4^BD ternary complex (Homo sapiens, UniProt P40337+P51532); test: SPR ternary complex measurement, VCB immobilised, 10 µM SMARCA4^BD present; format: binding; set-up: P51532, residues 1448–1569 with additional N-terminal SM residues; His6 (TEV site) (N, cleaved yes); GST (TEV site) (N, cleaved yes); made in house; host or cells: SMARCA4^BD: Escherichia coli BL21(DE3); conditions: for Kd: SPR; for alpha: cooperativity, SMARCA4, ratio of KD values measured in the same run
VCB: PROTAC: SMARCA4^BD ternary complex, sequence (P40337 54-213): as the sequence (P40337 54-213) above
VCB: PROTAC: SMARCA4^BD ternary complex, sequence (Q15369 17-112 partner limits assumed): as the sequence (Q15369 17-112 partner limits assumed) above
VCB: PROTAC: SMARCA4^BD ternary complex, sequence (Q15370 1-104 partner limits assumed): as the sequence (Q15370 1-104 partner limits assumed) above
VCB: PROTAC: SMARCA4^BD ternary complex, sequence (P51532 1448-1569): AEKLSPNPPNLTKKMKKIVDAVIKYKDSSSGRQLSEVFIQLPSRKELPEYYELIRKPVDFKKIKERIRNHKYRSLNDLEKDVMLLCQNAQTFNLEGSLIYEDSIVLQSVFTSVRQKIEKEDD
Protocol: as §2, with “software. Affinity and binding kinetic parameters were determined by global fitting using the 1:1 interaction model with a term for mass-transport included.” for “software.”

[3] = molecular target: T2, SMARCA2^BD (Homo sapiens, UniProt P51531); test: SPR binding to immobilised SMARCA2 bromodomain; conditions: SPR, read-out: SMARCA2 KD
T2 construct: P51531-2, residues 1373-1493 with additional N-terminal SM residues; GST (TEV site) (N, cleaved yes); made in house; host or cells: Escherichia coli BL21(DE3)
T2 sequence (P51531 1373-1493 isoform P51531-2): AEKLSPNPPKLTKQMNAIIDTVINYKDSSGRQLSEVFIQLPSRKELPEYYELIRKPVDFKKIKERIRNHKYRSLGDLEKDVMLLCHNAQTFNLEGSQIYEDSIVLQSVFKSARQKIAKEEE
Protocol: as §1, §2

[4] = binary binding to VCB, mean ± SD
[5] = ternary complex with SMARCA4BD, mean ± SD

| SMILES | Kd [1, 4] [nM] | Kd [2, 5] [nM] | Kd ([2]; ternary, individual replicates) | alpha [2] | Kd ([3]; SMARCA2BD, mean ± SD) [nM] | Kd ([3]; individual replicates) | Kd ([1]; binary, individual replicates) |
| --- | --- | --- | --- | --- | --- | --- | --- |
| Cc1ncsc1-c1ccc(C(CCC(C)CCN2CCC(c3ccc4c(c3)n(C3CCCC3)c3nc(=O)c5c(Br)cccc5n43)CC2)NC(=O)C2CC(O)CN2C(=O)C(NC(=O)C2(F)CC2)C(C)(C)C)cc1 (stereo not drawn) [ACBI2] | 28 ± 35 | 24 ± 4 | 21.9 nM and 22.7 nM and 28.4 nM | 1.4 | 208 ± 39 | 250 nM and 202 nM and 173 nM | – |
| Cc1ncsc1-c1ccc([C@H](CCCCN2CCC(c3ccc4c(c3)n(C3CCCC3)c3nc(=O)c5c(Br)cccc5n43)CC2)NC(=O)[C@@H]2C[C@@H](O)CN2C(=O)[C@@H](NC(=O)C2(F)CC2)C(C)(C)C)cc1 [compound 25] | 6 ± 1 | 14 ± 2 | 12.8 nM and 13.3 nM and 15.6 nM | 0.4 | 93 ± 3 | 95.4 nM and 90.4 nM and 94 nM | 6.94 nM and 6.43 nM and 5.3 nM |
| Cc1ncsc1-c1ccc([C@H](CCCCCN2CCC(c3ccc4c(c3)n(C3CCCC3)c3nc(=O)c5c(Br)cccc5n43)CC2)NC(=O)[C@@H]2C[C@@H](O)CN2C(=O)[C@@H](NC(=O)C2(F)CC2)C(C)(C)C)cc1 [compound 11] | 9 ± 3 | 18 ± 2 | 16.7 nM and 16.3 nM and 19.3 nM | 0.6 | – | 148 nM and 144 nM and 140 nM | 11.2 nM and 11.4 nM and 9.47 nM and 7.94 nM and 8.34 nM and 7.19 nM and 5.73 nM and 11.9 nM and 4.42 nM |
| Cc1ncsc1-c1ccc(CNC(=O)[C@@H]2C[C@@H](O)CN2C(=O)[C@@H](NC(=O)C2(F)CC2)C(C)(C)C)c(OCCOCCOCCN2CCC(c3ccc4c(c3)n(C3CCCC3)c3nc(=O)c5c(Br)cccc5n43)CC2)c1 [compound 21] | 21 ± 5 | 16 ± 11 | 28 nM and 7.74 nM and 13 nM | 1.3 | 680 ± 121 | 650 nM and 814 nM and 577 nM | 19.9 nM and 27 nM and 21.6 nM and 15.2 nM |
| Cc1ncsc1-c1ccc(CNC(=O)[C@@H]2C[C@@H](O)CN2C(=O)[C@@H](NC(=O)C2(F)CC2)C(C)(C)C)c(OCCOCCOCCOCCN2CCC(c3ccc4c(c3)n(C3CCCC3)c3nc(=O)c5c(Br)cccc5n43)CC2)c1 [compound 22] | 39 ± 16 | 26 ± 2 | 24.6 nM and 23.9 nM and 28 nM | 1.5 | 1100 ± 433 | 1570 nM and 715 nM and 1020 nM | 31.8 nM and 62.9 nM and 29.3 nM and 33 nM |
